Legend:
rats [1] = assay: Light dark box; format: in vivo; details: for time to make the second transition back into the light box: Experiment 1, FIG. 16, 100 ng T007
Experimental: In these experiments, the following was measured: • 1. First transition to the dark box • 2. Second transition to the light box • 3. Total number of transitions • 4. Time spent in the light box
One half of the box is open at the top and is brightly lit. There is an opening to the dark-box that is covered by a lid.
Rats would prefer to be in the dark box and would be anxious about going into the light box.
Following the infusion, the rate is placed in the light box facing away from the opening to the dark box. A 10 minute recording is made. During these 10 minutes, measurements are made of four things: • 1. The time it takes for the rat to make the first transition into the dark box • 2. The time it takes for the rat to make the second transition from the dark box back into the light box • 3. Number of transitions between boxes • 4. Time spent in light box
Therefore, it would be expected than less anxious rats would take a longer time to make the first transition into the dark box, spend less time to make the second transition into the light box, make more transitions between boxes, and spend more time in the light box.

rats [2] = assay: Olfactory fear conditioning; format: in vivo; details: Experiment 3, FIG. 36, 1 ng CBD, 0.25 nmol omega-3
Description: The olfactory fear conditioning protocol is for measurement of the formation of fear memory. This protocol lasts three days. On day 1, the rat is habituated to two boxes (one with a striped background and one with a polka dot back ground).
On day 2, the rat receives a drug infusion and is placed into one of the boxes (previously assigned as the “shock box”). While in the box, the rat is exposed to 2 odours (peppermint and almond). The rat is exposed to one odour followed by the other odour 5 times. One of these odours were previously assigned as the “shock” odour (CS+) such that after exposure to the “shock” odour, the rat would receive a foot shock. There was no foot shock following exposure to the “safe” odour (CS−). On day 3, the rat was placed in the safe box. They were exposed to each odour (both CS+ and CS−) one at a time for 5 minutes. During the 5 minutes, freezing behaviour was recorded.
It would be expected that CBD would block the formation of fear memory and the rats would freeze a similar amount to CS+ and CS−.
2-way repeated measures ANOVA was performed for the three experiments. With reference to FIG. 34, there was no significant interaction effect by group x CS (p=0.209).

rats [3] = assay: Elevated plus maze; format: in vivo; details: intra-NAc; for number of entries into the open arms: Experiment 3, FIG. 13
Experimental: In these experiments, the following was measured: • 1. Time in open arms • 2. Entries into open arms
In these experiments, the apparatus of FIG. 7 was used.
As shown, the apparatus includes 2 open arms and 2 closed arms that form a plus shape. Rats feel more secure in closed spaces and thus it would be expected that more anxious rats would spend more time in the closed arms and less time on the open arms.
Before each test, the same doses of drugs used in the electrophysiology experiments were infused.
The rat was then placed in the middle of the apparatus, facing into the closed arms and recorded for 10 minutes.
The number of entries into the open arms and the total time spent in the open arms was recorded. Less anxious rats would be expected to make more entries into the open arms and spend more time there as well.

[4] = test system: dopamine neurons in the ventral tegmental area (VTA); assay: Electrophysiology: VTA dopamine neuron recording after intra-NAc infusion; format: in vivo, rats
Experimental: Three experiments were run of this type. All included a vehicle. In addition, the components were as follows: • Experiment 1: • 100 ng CBD; 100 ng CBD+100 ng T007; 100 ng T007 • Experiment 2: • 50 ng CBD; 0.5 nmol n−3; 50 ng CBD+0.5 nmol n−3 • Experiment 3: • 1 ng CBD; 0.25 nmol n−3; 1 ng CBD+0.25 nmol n−3; 1 ng CBD+0.25 nmol n−3+100 ng T007 • In the above: • CBD=cannabidiol • T007=T0070907 (PPARg antagonist) • n−3=omega-3
The omega-3 formulation includes equal amounts of DHA and EPA. Two doses were used in this study. 0.5 nmol n−3 is made up of 0.5 nmol DHA and 0.5 nmol EPA. 0.25 nmol n−3 is made up of 0.25 nmol DHA and 0.25 nmol EPA.
In this procedure, rats were anesthetized with urethane. An electrode was used to record the baseline frequency of dopamine neurons in the ventral tegmental area (VTA) for 5 minutes. After the baseline recording, combinations of CBD, omega-3, and T007 (a PPARg antagonist) were infused into the nucleus accumbens (NAc).
The post-infusion frequency of that neuron was compared to its pre-infusion frequencies.
One of the characteristics of dopamine cells is that they have a tonic mode of firing and a burst mode of firing. Therefore, both the frequency and burst changes following infusions were analyzed. FIG. 1 looks at the frequency of VTA dopamine cells. The Y-axis is frequency (% Baseline). […] This means that after an intra-NAc infusion of 100 ng CBD, the dopamine cell would decrease in frequency about 15%.
FIG. 2 looking at difference in burst percentage. A burst is a group of signals occurring in a short period of time. Specifically, in this experiment, a burst is defined to be an event where 2 spikes occur within a timespan of 80 ms. […] As such, the number of bursts that occurred during pre-infusion was recording and the number of spikes that occurred in those bursts was determined. The number of those spikes occurring in those bursts was divided by the total number of spikes that occurred during the pre-infusion recording The same was done for the post-infusion recording and the difference between these 2 values was determined.

[5] = 100 ng CBD, 100 ng CBD+100 ng T007
[6] = Experiment 3, FIG. 24, 1 ng CBD, 0.25 nmol omega-3, combination, combination+100 ng T007
[7] = first experiment, FIG. 17, 100 ng CBD, 100 ng CBD+100 ng T007
[8] = first experiment, FIG. 18, 100 ng CBD, 100 ng CBD+100 ng T007
[9] = Experiment 3, FIG. 12, 1 ng CBD, 0.25 nmol omega-3, combination, combination+100 ng T007
[10] = 1 ng CBD, 0.25 nmol omega-3, combination, combination+100 ng T007
[11] = Experiment 3, FIG. 5, 1 ng CBD, 0.25 nmol omega-3, 1 ng CBD+0.25 nmol omega-3, combination+100 ng T007, intra-NAc, compared to vehicle

Structure (SMILES)	time to make the second transition back into the light box (rats [1]; [5])	time to make the second transition (rats [1]; [6])	number of transitions between boxes (rats [1]; [7])	time spent in the light box (rats [1]; [8])	time spent in open arms (rats [3]; [9])	number of entries into the open arms (rats [3]; [10])	VTA dopamine activity [4, 11]	further results
C=C(C)[C@@H]1CCC(C)=C[C@H]1c1c(O)cc(CCCCC)cc1O [CBD, cannabidiol]	significantly decreased	ineffective	significantly increased	significantly increased	ineffective	not effective	not different from vehicle	time to make the second transition (rats [1]; Experiment 2, FIG. 20, 50 ng CBD, 0.5 nmol omega-3, 50 ng CBD+0.5 nmol omega-3): not effective; number of transitions between boxes (rats [1]; Experiment 3, FIG. 25, 1 ng CBD, 0.25 nmol omega-3, 1 ng CBD+0.25 nmol omega-3): ineffective; time spent in the light box (rats [1]; Experiment 3, FIG. 26, 1 ng CBD, 0.25 nmol omega-3, 1 ng CBD+0.25 nmol omega-3): ineffective; freezing time compared to vehicle (rats [2]; 1 ng CBD+0.25 nmol omega-3): not different from vehicle; time spent in open arms (rats [3]; Experiment 1, FIG. 8, 100 ng CBD, 100 ng CBD+100 ng T007, 100 ng T007, 10 minutes): slight increase; number of entries into open arms (rats [3]; Experiment 1, FIG. 9, 100 ng CBD, 100 ng CBD+100 ng T007, 100 ng T007, 10 minutes): slight increase; time spent in open arms (rats [3]; Experiment 2, FIG. 10, 50 ng CBD, 0.5 nmol omega-3, 50 ng CBD+0.5 nmol omega-3): not effective; number of entries into open arms (rats [3]; Experiment 2, FIG. 11, 50 ng CBD, 0.5 nmol omega-3, 50 ng CBD+0.5 nmol omega-3): not effective; frequency (% Baseline) of VTA dopamine cells ([4]; Experiment 1, FIG. 1, 100 ng CBD intra-NAc infusion, post- vs pre-infusion): about 85%; VTA dopamine frequency ([4]; Experiment 1, FIG. 1, 100 ng CBD, 100 ng CBD+100 ng T007, 100 ng T007, intra-NAc): decreasing trend; decrease in frequency of the dopamine cell ([4]; Experiment 1, FIG. 1, after intra-NAc infusion of 100 ng CBD): about 15%; difference in burst percentage (VTA DA bursts) ([4]; Experiment 1, FIG. 2, 100 ng CBD, 100 ng CBD+100 ng T007, 100 ng T007, intra-NAc): very slight decrease; VTA dopamine activity ([4]; Experiment 2, FIG. 3, 50 ng CBD, 0.5 nmol omega-3, 50 ng CBD+0.5 nmol omega-3, intra-NAc): ineffective
O=C(Nc1ccncc1)c1cc([N+](=O)[O-])ccc1Cl [T007]	blocked	blocked	blocked	blocked	blocked	blocked	blocked	difference between the freezing time to CS+ and CS− (fear memory formation) (rats [2]; combination, combination+100 ng T007): blocked slightly
